Experimental data from patent US10239882B2, “Substituted 5-methyl-[1,2,4]triazolo[1,5-a]pyrimidin-2-amine compounds as PDE2 inhibitors” (DART NEUROSCIENCE (CAYMAN) LTD., priority 2014, dated 2019).

The compounds below were run against FLAG-tagged PDE2A1 (amino acids 2-941) (Homo sapiens (Human), UniProt O00408) (assay: IMAP TR-FRET PDE2A enzymatic assay). Conditions: 200 nM FAM-cAMP substrate, 11-point half-log dose-response.
FLAG-tagged PDE2A1 (amino acids 2-941), sequence (O00408 2-941): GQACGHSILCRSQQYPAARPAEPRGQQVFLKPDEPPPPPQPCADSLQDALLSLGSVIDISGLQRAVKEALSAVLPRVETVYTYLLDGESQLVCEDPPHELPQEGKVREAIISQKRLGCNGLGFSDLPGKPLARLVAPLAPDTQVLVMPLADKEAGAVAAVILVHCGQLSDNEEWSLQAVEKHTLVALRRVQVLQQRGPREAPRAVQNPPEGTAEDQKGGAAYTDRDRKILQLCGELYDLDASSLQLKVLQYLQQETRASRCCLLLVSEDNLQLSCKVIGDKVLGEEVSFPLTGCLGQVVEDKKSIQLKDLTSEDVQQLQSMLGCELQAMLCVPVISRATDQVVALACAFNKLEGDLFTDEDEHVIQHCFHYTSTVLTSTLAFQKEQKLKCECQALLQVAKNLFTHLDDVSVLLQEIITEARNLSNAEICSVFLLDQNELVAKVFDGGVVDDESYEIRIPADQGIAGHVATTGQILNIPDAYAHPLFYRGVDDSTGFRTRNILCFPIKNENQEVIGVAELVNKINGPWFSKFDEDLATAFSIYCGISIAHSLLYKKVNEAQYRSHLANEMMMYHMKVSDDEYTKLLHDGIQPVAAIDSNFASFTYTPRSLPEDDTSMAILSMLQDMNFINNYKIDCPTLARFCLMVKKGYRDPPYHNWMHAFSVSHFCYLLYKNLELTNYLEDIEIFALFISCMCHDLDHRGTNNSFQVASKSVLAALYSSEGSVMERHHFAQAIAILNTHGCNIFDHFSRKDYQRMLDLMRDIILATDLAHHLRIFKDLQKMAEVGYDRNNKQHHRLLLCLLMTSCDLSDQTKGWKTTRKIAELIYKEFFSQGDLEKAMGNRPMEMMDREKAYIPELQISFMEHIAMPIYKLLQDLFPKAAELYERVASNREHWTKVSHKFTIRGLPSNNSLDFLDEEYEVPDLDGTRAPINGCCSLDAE
Assay type: biochemical
Description: An IMAP TR-FRET-based phosphodiesterase assay was developed using the PDE2A isoform. IMAP technology is based on high-affinity binding of phosphate by immobilized metal (MIII) coordination complexes on nanoparticles. The IMAP “binding reagent” recognizes phosphate groups on AMP or GMP generated from cAMP or cGMP in a PDE reaction. Cyclic nucleotides that carry a phosphodiester bond and not a free phosphate are not recognized by the binding reagent. The time resolved fluorescence resonance energy transfer (TR-FRET) is afforded by a Terbium (Tb)-Donor pre-bound to the nanoparticles. FRET occurs when the fluorescent-labeled AMP or GMP product of a PDE reaction binds and comes into close proximity to the Tb-Donor complex. Due to the long lifetime of Tb fluorescence, detection can be run in time-resolved mode to reduce or eliminate interference from auto-fluorescent compounds.
The IMAP TR-FRET PDE2A assay was performed in 1536-well white plates. A total of 250 pg per well of FLAG-tagged PDE2A1 (amino acids 2-941) was dispensed in 2.5 μL IMAP assay buffer consisting of 10 mM Tris pH 7.2, 10 mM MgCl2, 1 mM DTT, and 0.1% fatty acid free BSA. 30 nL of compound was then added from 1 mM stocks in DMSO using a Kalypsys Pintool. Plates were incubated for 5 min at room temperature before dispensing 1.5 μL of 533 nM FAM-cAMP substrate for a final concentration of 200 nM. Following a brief centrifugation, plates were incubated for 30 min at room temperature. The assay was terminated by adding 5 μL IMAP binding reagent Tb complex to each well which was prepared according to manufacturer's recommendations (Molecular Devices). Plates were incubated an additional 90 minutes at room temperature and read on a Viewlux plate reader. All compounds were solvated at a concentration of 10 mM in DMSO and tested in 11-point half-log dose-response. Curve fitting and IC50 values were determined using a standard four parameter fit.
Cc1cc(C2CCOCC2)n2nc(NCc3cnn(-c4ccccc4C)c3)nc2n1 [Example 36, 5-Methyl-N-{[1-(2-methylphenyl)-1H-pyrazol-4-yl]methyl}-7-(oxan-4-yl)-[1,2,4]triazolo[1,5-a]pyrimidin-2-amine] was tested, and the “PDE2 (PIC50)” value was over 7.
For Cc1cc(C2CCOCC2)n2nc(NCc3cc(-c4ccccc4)no3)nc2n1 [Example 37, 5-Methyl-7-(oxan-4-yl)-N-[(3-phenyl-1,2-oxazol-5-yl)methyl]-[1,2,4]triazolo[1,5-a]pyrimidin-2-amine], the “PDE2 (PIC50)” value was over 7.
In the case of COc1ccc(CNc2nc3nc(C)cc(C4CCCOC4)n3n2)cc1 (stereo not drawn) [Example 38, N-[(4-Methoxyphenyl)methyl]-5-methyl-7-(oxan-3-yl)-[1,2,4]triazolo[1,5-a]pyrimidin-2-amine], the “PDE2 (PIC50)” value is reported as over 7.
With Cc1cc(C2CCOCC2)n2nc(NCc3cccc(Br)c3)nc2n1 [Example 39, N-[(3-Bromophenyl)methyl]-5-methyl-7-(oxan-4-yl)-[1,2,4]triazolo[1,5-a]pyrimidin-2-amine] the “PDE2 (PIC50)” value was over 7.
Cc1cc(C2CCOCC2)n2nc(NCc3cccc(Cl)c3)nc2n1 [Example 40, N-[(3-Chlorophenyl)methyl]-5-methyl-7-(oxan-4-yl)-[1,2,4]triazolo[1,5-a]pyrimidin-2-amine] was tested, and the “PDE2 (PIC50)” value was over 7.
Cc1cc(C2CCOCC2)n2nc(NCc3cccc(C(F)(F)F)c3)nc2n1 [Example 41, 5-Methyl-7-(oxan-4-yl)-N-{[3-(trifluoromethyl)phenyl]methyl}-[1,2,4]triazolo[1,5-a]pyrimidine-2-amine] was tested, and the “PDE2 (PIC50)” value was over 7.
In the case of Cc1cc(C2CCOCC2)n2nc(NCc3ccc4c(c3)CCO4)nc2n1 [Example 42, N-(2,3-Dihydro-1-benzofuran-5-ylmethyl)-5-methyl-7-(oxan-4-yl)-[1,2,4]triazolo[1,5-a]pyrimidin-2-amine], the “PDE2 (PIC50)” value is reported as over 7.
With Cc1cc(C2CCOCC2)n2nc(NCc3cn(-c4ccccc4)nc3C)nc2n1 [Example 46, 5-Methyl-N-[(3-methyl-1-phenyl-1H-pyrazol-4-yl)methyl]-7-(oxan-4-yl)-[1,2,4]triazolo[1,5-a]pyrimidin-2-amine] the “PDE2 (PIC50)” value was over 7.
COc1cc(F)c(CNc2nc3nc(C)cc(C4CCOCC4)n3n2)c(F)c1 [Example 50, N-[(2,6-Difluoro-4-methoxyphenyl)methyl]-5-methyl-7-(oxan-4-yl)-[1,2,4]triazolo[1,5-a]pyrimidin-2-amine] was tested, and the “PDE2 (PIC50)” value was over 7.
With Cc1cc(C2CCOCC2)n2nc(NCc3ccnc(C(F)F)c3)nc2n1 [Example 52, N-{[2-(Difluoromethyl)pyridin-4-yl]methyl}-5-methyl-7-(oxan-4-yl)-[1,2,4]triazolo[1,5-a]pyrimidin-2-amine] the “PDE2 (PIC50)” value was over 7.
For Cc1cc(CNc2nc3nc(C)cc(C4CCOCC4)n3n2)cc(C)n1 [Example 53, N-[(2,6-Dimethylpyridin-4-yl)methyl]-5-methyl-7-(oxan-4-yl)-[1,2,4]triazolo[1,5-a]pyrimidin-2-amine], the “PDE2 (PIC50)” value was over 7.
For Cc1cncc(CNc2nc3nc(C)cc(C4CCOCC4)n3n2)c1 [Example 54, 5-Methyl-N-[(5-methylpyridin-3-yl)methyl]-7-(oxan-4-yl)-[1,2,4]triazolo[1,5-a]pyrimidin-2-amine], the “PDE2 (PIC50)” value was over 7.
COc1ccc(CNc2nc3nc(C)cc(C4(F)CCOCC4)n3n2)cc1 [Example 55, 7-(4-Fluorooxan-4-yl)-N-[(4-methoxyphenyl)methyl]-5-methyl-[1,2,4]triazolo[1,5-a]pyrimidin-2-amine] was tested, and the “PDE2 (PIC50)” value was over 7.
With Cc1cc(C2CCOCC2)n2nc(NCc3ccnc(C(F)(F)F)c3)nc2n1 [Example 59, 5-Methyl-7-(oxan-4-yl)-N-{[2-(trifluoromethyl)pyridin-4-yl]methyl}-[1,2,4]triazolo[1,5-a]pyrimidin-2-amine] the “PDE2 (PIC50)” value was over 7.
In the case of Cc1cc(C2CCOCC2)n2nc(NCc3ccnc4ccccc34)nc2n1 [Example 60, 5-Methyl-7-(oxan-4-yl)-N-(quinolin-4-ylmethyl)-[1,2,4]triazolo[1,5-a]pyrimidin-2-amine], the “PDE2 (PIC50)” value is reported as over 7.
With Cc1cc(C2(C)CCOCC2)n2nc(NCc3cn(-c4ccccc4)nc3C)nc2n1 [Example 61, 5-Methyl-N-[(3-methyl-1-phenyl-1H-pyrazol-4-yl)methyl]-7-(4-methyloxan-4-yl)-[1,2,4]triazolo[1,5-a]pyrimidin-2-amine] the “PDE2 (PIC50)” value was over 7.
Cc1cc(C2(C)CCOCC2)n2nc(NCc3cnn(-c4ccccc4)c3)nc2n1 [Example 62, 5-Methyl-7-(4-methyloxan-4-yl)-N-[(1-phenyl-1H-pyrazol-4-yl)methyl]-[1,2,4]triazolo[1,5-a]pyrimidin-2-amine] was tested, and the “PDE2 (PIC50)” value was over 7.
In the case of Cc1cc(C2CCOCC2)n2nc(NCc3cn(C(C)C)nc3C)nc2n1 [Example 66, 5-Methyl-N-{[3-methyl-1-(propan-2-yl)-1H-pyrazol-4-yl]methyl}-7-(oxan-4-yl)-[1,2,4]triazolo[1,5-a]pyrimidin-2-amine], the “PDE2 (PIC50)” value is reported as over 7.

Same assay, conditions: 200 nM FAM-cAMP substrate, 11-point half-log dose-response, read-out: PDE2 (PIC50)
Cc1cc(CNc2nc3nc(C)cc(C4CCOCC4)n3n2)ccn1 [Example 35, 5-Methyl-N-[(2-methylpyridin-4-yl)methyl]-7-(oxan-4-yl)-[1,2,4]triazolo[1,5-a]pyrimidin-2-amine] gave an IC50 of 100 to 1000 nM.
For Cc1cc(CNc2nc3nc(C)cc(C4(C)CCOCC4)n3n2)ccn1 [Example 43, 5-Methyl-7-(4-methyloxan-4-yl)-N-[(2-methylpyridin-4-yl)methyl]-[1,2,4]triazolo[1,5-a]pyrimidin-2-amine], the IC50 was 100 to 1000 nM.
Compound COc1ccc(CNc2nc3nc(C)cc(C4CCOC4)n3n2)cc1 (stereo not drawn) [Example 44, N-[(4-Methoxyphenyl)methyl]-5-methyl-7-(oxolan-3-yl)-[1,2,4]triazolo[1,5-a]pyrimidin-2-amine] has an IC50 of 100 to 1000 nM.
In the case of Cc1cc(C2CCOCC2)n2nc(NCc3ccc4c(c3)OC(F)(F)O4)nc2n1 [Example 45, N-[(2,2-Difluoro-2H-1,3-benzodioxol-5-yl)methyl]-5-methyl-7-(oxan-4-yl)-[1,2,4]triazolo[1,5-a]pyrimidin-2-amine], the IC50 is reported as 100 to 1000 nM.
Work on Cc1cc(C2CCOCC2)n2nc(NCc3ccccc3C)nc2n1 [Example 47, 5-Methyl-N-[(2-methylphenyl)methyl]-7-(oxan-4-yl)-[1,2,4]triazolo[1,5-a]pyrimidin-2-amine] yielded an IC50 of 100 to 1000 nM.
Cc1cc(C2CCOCC2)n2nc(NCc3ccccc3Cl)nc2n1 [Example 48, N-[(2-Chlorophenyl)methyl]-5-methyl-7-(oxan-4-yl)-[1,2,4]triazolo[1,5-a]pyrimidin-2-amine] was tested, and the IC50 was 100 to 1000 nM.
Cc1cc(C2CCOCC2)n2nc(NCc3cc(F)ccc3F)nc2n1 [Example 49, N-[(2,5-Difluorophenyl)methyl]-5-methyl-7-(oxan-4-yl)-[1,2,4]triazolo[1,5-a]pyrimidin-2-amine] was tested, and the IC50 was 100 to 1000 nM.
Compound Cc1cc(C2CCOCC2)n2nc(NCc3c(F)cccc3F)nc2n1 [Example 51, N-[(2,6-Difluorophenyl)methyl]-5-methyl-7-(oxan-4-yl)-[1,2,4]triazolo[1,5-a]pyrimidin-2-amine] has an IC50 of 100 to 1000 nM.
Cc1cc(C2CCOCC2)n2nc(NCc3ccc(F)c(F)c3)nc2n1 [Example 56, N-[(3,4-Difluorophenyl)methyl]-5-methyl-7-(oxan-4-yl)-[1,2,4]triazolo[1,5-a]pyrimidin-2-amine] gave an IC50 of 100 to 1000 nM.
Compound Cc1cc(C2CCOCC2)n2nc(NCc3ccc(F)cc3)nc2n1 [Example 57, N-[(4-Fluorophenyl)methyl]-5-methyl-7-(oxan-4-yl)-[1,2,4]triazolo[1,5-a]pyrimidin-2-amine] has an IC50 of 100 to 1000 nM.
Cc1cc(C2CCOCC2)n2nc(NCc3cccc(F)c3)nc2n1 [Example 58, N-[(3-Fluorophenyl)methyl]-5-methyl-7-(oxan-4-yl)-[1,2,4]triazolo[1,5-a]pyrimidin-2-amine] showed an IC50 of 100 to 1000 nM.
Work on Cc1cc(C2CC2)n2nc(NCc3cn(-c4ccccc4)nc3C)nc2n1 [Example 63, 7-Cyclopropyl-5-methyl-N-[(3-methyl-1-phenyl-1H-pyrazol-4-yl)methyl]-[1,2,4]triazolo[1,5-a]pyrimidin-2-amine] yielded an IC50 of 100 to 1000 nM.
For COc1ccc([C@@H](C)Nc2nc3nc(C)cc(C4CCOCC4)n3n2)cc1 [Example 64, N-[(1R)-1-(4-Methoxyphenyl)ethyl]-5-methyl-7-(oxan-4-yl)-[1,2,4]triazolo[1,5-a]pyrimidin-2-amine], the IC50 was 100 to 1000 nM.
With Cc1cc(C2CCOCC2)n2nc(NCc3cn(CC(F)F)nc3C)nc2n1 [Example 65, N-{[1-(2,2-Difluoroethyl)-3-methyl-1H-pyrazol-4-yl]methyl}-5-methyl-7-(oxan-4-yl)-[1,2,4]triazolo[1,5-a]pyrimidin-2-amine] the IC50 was 100 to 1000 nM.
Work on Cc1cc(C2CCOCC2)n2nc(NCc3ccc(F)cc3F)nc2n1 [Example 68, N-[(2,4-Difluorophenyl)methyl]-5-methyl-7-(oxan-4-yl)-[1,2,4]triazolo[1,5-a]pyrimidin-2-amine] yielded an IC50 of 100 to 1000 nM.
